Each structure is given as a SMILES string.

In assay [1] the target is human adenosine A1 receptor (Homo sapiens (Human), UniProt P30542). Put plainly: CHO-hA1 [3H]DPCPX binding assay (Test A). The settings on record: CHO membranes, 1 nM [3H]DPCPX, 25° C., 1 h; for Ki: read-out: pKi A1 (converted). As to the method: (§1) All test compounds were prepared as a stock solution of 10 mM in 100% DMSO.
Assay [2] concerns haloperidol-induced catalepsy in rats. Put plainly: Catalepsy reversal test (Test B). It is filed as in vivo, Sprague-Dawley rats. Conditions: for reversal of cataleptic behavior in rats pre-treated with haloperidol: dose of 1 mg/kg p.o. How it is done: The dopamine D2 receptor antagonist, haloperidol, induces Parkinsonism in humans and induces motor effects in rats such as catalepsy. There is considerable evidence that adenosine A2A receptor antagonists reverse haloperidol-induced motor effects in preclinical studies. […] The present study determines the ability of haloperidol-induced catalepsy in rats to be reversed by novel A2A receptor antagonists.
Haloperidol (0.82 mg/kg, i.p.; 150 min pre-test time) induces significant cataleptic behaviour in rats (average score 3.1). The effect of selected compounds of the invention (2-10 mg/kg or 0.3-3 mg/kg, p.o.; 120 min pre-test time) on catalepsy was established by administration of said compounds to rats pre-treated with haloperidol as described above.
Details of a similar test may be found in, for example, Hodgson et al., J. Pharmacol. Exp. Ther. 330, 2009.

Assay [3] concerns the target human adenosine A2a receptor (Homo sapiens (Human), UniProt P29274). Put plainly: HEK293-hA2a [3H]-ZM241385 binding assay (Test A). The settings on record: HEK293 membranes, 1 nM [3H]ZM241385, 25° C., 1 h. How it is done:
as §1

human adenosine A1 receptor, sequence (P30542 whole entry): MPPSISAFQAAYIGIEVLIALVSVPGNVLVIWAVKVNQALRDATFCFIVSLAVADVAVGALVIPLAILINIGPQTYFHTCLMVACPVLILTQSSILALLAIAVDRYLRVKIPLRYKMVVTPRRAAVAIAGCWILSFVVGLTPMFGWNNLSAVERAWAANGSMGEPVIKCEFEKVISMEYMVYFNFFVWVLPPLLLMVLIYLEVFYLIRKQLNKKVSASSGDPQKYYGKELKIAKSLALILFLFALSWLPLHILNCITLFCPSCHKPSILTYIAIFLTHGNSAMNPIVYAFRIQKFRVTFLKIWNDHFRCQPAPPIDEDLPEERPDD
human adenosine A2a receptor, sequence (P29274 whole entry): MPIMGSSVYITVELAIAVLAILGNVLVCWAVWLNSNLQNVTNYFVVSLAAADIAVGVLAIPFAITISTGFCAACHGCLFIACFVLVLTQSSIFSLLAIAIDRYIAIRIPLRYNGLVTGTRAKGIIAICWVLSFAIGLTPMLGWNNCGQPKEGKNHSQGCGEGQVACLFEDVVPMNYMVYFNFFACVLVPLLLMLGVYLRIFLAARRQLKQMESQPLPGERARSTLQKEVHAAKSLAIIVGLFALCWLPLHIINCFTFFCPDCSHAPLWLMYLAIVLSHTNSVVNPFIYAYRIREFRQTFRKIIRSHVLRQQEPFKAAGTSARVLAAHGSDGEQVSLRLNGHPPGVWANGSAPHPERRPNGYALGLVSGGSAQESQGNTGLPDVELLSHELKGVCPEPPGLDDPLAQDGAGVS

On to `Nc1nnc(-c2cc(Cl)nc(C(F)(F)F)c2)c(-c2ccc(F)cc2)n1` [1(clxix)], for which the “pKi A1” value in assay [1] is 6.99. For the same compound, the “reversal of cataleptic behavior in rats pre-treated with haloperidol” value (shortened to “reversal of cataleptic behavior”) in assay [2] (120 min pre-test time) is reported as “statistically significant”. The “pKi A2a” value in assay [3] came out at 8.40.
What is called ED50 is the dose at which the effect has come halfway, by size or by number of responders. In the case of `Nc1nnc(-c2cccc(Cl)c2)c(-c2ccccc2)n1` [Example 1(vi), 6-(3-Chlorophenyl)-5-phenyl-1,2,4-triazin-3-amine], the ED50 in assay [2] (Rattus norvegicus, p.o., 120 min pre-test time, haloperidol 0.82 mg/kg i.p., read-out: ED50, reversal of cataleptic behaviour in rats pre-treated with haloperidol) is 9.8 mg/kg.
As to `CC1CN(c2nnc(N)nc2-c2ccccc2)CC(C)O1` (stereo not drawn) [2(iv), 6-(2,6-Dimethylmorpholin-4-yl)-5-phenyl-1,2,4-triazin-3-amine], the Ki in assay [1] was more than 10000 nM. The “pKi A2a” value in assay [3] is recorded as 7.79.
Consider `Cc1cc(-c2nnc(N)nc2-c2cc(F)cc(F)c2)cc(C)n1` [1(cliv)], for which, in assay [1], the “pKi A1” value is given as 6.77. In assay [2] (120 min pre-test time), the “reversal of cataleptic behavior” value is “statistically significant”.
In the case of `Cc1ccc(Sc2nnc(N)nc2-c2ccccc2)cc1` [3(xxxii)], the “pKi A1” value in assay [1] is on record as 7.00. The “pKi A2a” value in assay [3] was determined as 5.82.
As for `CC1(C)CCCN(c2nnc(N)nc2-c2ccccc2)C1` [2(vi), 6-(3,3-Dimethylpiperidin-1-yl)-5-phenyl-1,2,4-triazin-3-amine], the Ki in assay [1] is more than 10000 nM. For the same compound, the “pKi A2a” value in assay [3] was determined as 7.39.
With `Cn1nc(C(F)(F)F)cc1Oc1nnc(N)nc1-c1ccccc1` [3(xxiv)], the “pKi A1” value in assay [1] was determined as 8.46. In addition, the “pKi A2a” value in assay [3] is 7.39.
Taken in the same sequence, the figures for `CC1(C)C=C(c2nnc(N)nc2-c2ccccc2)CC(C)(C)O1` [1(lxxx)] were 6.01 and 6.61.
In the case of `Nc1nnc(-c2cc(Cl)cc(C3CC3)c2)c(-c2ccccc2)n1` [4(ii), 6-(3-Chloro-5-cyclopropylphenyl)-5-phenyl-1,2,4-triazin-3-amine], the Ki was 37.2 nM in assay [1] and 12.9 nM in assay [3] (read-out: pKi A2a (converted)).
For `Nc1nnc(-c2cnn(Cc3ccccc3)c2)c(-c2ccccc2)n1` [1(cxxxiv)], the “pKi A1” value in assay [1] was 7.62. Moreover, the “pKi A2a” value in assay [3] was 5.62.
Taken in the same sequence, the figures for `Cc1cc(-c2nnc(N)nc2-c2ccccc2F)cc(Cl)n1` [1(clxxvi)] were 6.93 and 8.03.
Taken in the same sequence, the figures for `Cc1ncccc1Oc1nnc(N)nc1-c1ccccc1` [3(xxi)] were 8.07 and 6.22.
Take `Cc1cc(-c2nnc(N)nc2-c2ccccc2)cc(Cl)n1` [1(lvi)]: the “pKi A1” value in assay [1] is reported as 7.33. Besides, the “reversal of cataleptic behavior” value in assay [2] (120 min pre-test time) is “statistically significant”. The “pKi A2a” value in assay [3] came out at 8.22.
With `CN(C)c1cc(-c2nnc(N)nc2-c2ccccc2)ccn1` [1(ccxi)], the “pKi A1” value in assay [1] worked out at 8.74. Further, in assay [3], the “pKi A2a” value was 7.71.
Taken in the same sequence, the figures for `Nc1nnc(-c2cc(Cl)cc(C(F)(F)F)c2)c(-c2ncccn2)n1` [1(ccxviii)] were 5.25 and 6.58.
For the compound `Nc1nnc(-c2cc(Cl)cc(Cl)c2)c(-c2ccccn2)n1` [1(cciv)], the “pKi A1” value in assay [1] was determined as 5.97. For the same compound, the “pKi A2a” value in assay [3] turned out to be 7.21.
With `Cc1cc(-c2nnc(N)nc2-c2ccc(Cl)cc2)cc(C)n1` [1(clix)], the “pKi A1” value in assay [1] turned out to be 7.07. Also, the “reversal of cataleptic behavior” value in assay [2] (120 min pre-test time) was “statistically significant”. Also, the “pKi A2a” value in assay [3] came out at 7.81.
For `Nc1nnc(N2CCOC(CO)C2)c(-c2ccccc2)n1` (stereo not drawn) [2(xxv)], the “pKi A1” value in assay [1] was 7.49. In addition, in assay [3], the “pKi A2a” value is given as 5.53.
Turning to `Cc1csc(Nc2nnc(N)nc2-c2ccccc2)n1` [2(xxii)], the “pKi A1” value in assay [1] was found to be 6.71. Also, the “pKi A2a” value in assay [3] was determined as 5.07.
In the case of `Nc1nnc(-c2cc(Cl)nc(CF)c2)c(-c2ccccc2)n1` [1(clxxxi)], in assay [1], the “pKi A1” value amounted to 7.17. The “pKi A2a” value in assay [3] is recorded as 8.71.
`Nc1nnc(-n2ccc(=O)cc2)c(-c2ccccc2)n1` [3(xvi)]: in assay [1], the “pKi A1” value came out at 7.15. The “pKi A2a” value in assay [3] was found to be 7.41.
As for `Cc1cc(-c2nnc(N)nc2-c2ccccc2)cc(C(F)(F)F)n1` [Example 1(ccix), 6-[2-methyl-6-(trifluoromethyl)pyridin-4-yl]-5-phenyl-1,2,4-triazin-3-amine], the “pKi A1” value in assay [1] came to 7.60. Moreover, the “reversal of cataleptic behavior” value in assay [2] (120 min pre-test time) was “statistically significant”.
As for `Nc1nnc(-c2ccc3cc[nH]c3c2)c(-c2ccccc2)n1` [1(xviii), 6-(1H-Indol-6-yl)-5-phenyl-1,2,4-triazin-3-amine], the “pKi A1” value in assay [1] was 6.91. Also, the “pKi A2a” value in assay [3] is listed as 6.75.
For the compound `Cc1cc(-c2nnc(N)nc2-c2ccccc2)cc(C(F)F)n1` [1(clxxix)], in assay [1], the “pKi A1” value is 7.52. Besides, in assay [2] (120 min pre-test time), the “reversal of cataleptic behavior” value was “statistically significant”. The “pKi A2a” value in assay [3] was determined as 8.62.
Consider `COc1cc(OC)cc(-c2nnc(N)nc2-c2ccccc2)c1` [1(xxiv), 6-(3,5-Dimethoxyphenyl)-5-phenyl-1,2,4-triazin-3-amine], for which the “pKi A1” value in assay [1] was 8.03. For the same compound, in assay [3], the “pKi A2a” value is 6.97.
On to `Nc1nnc(Oc2cccc(C(F)(F)F)c2)c(-c2ccccc2)n1` [3(v), 5-Phenyl-6-[3-(trifluoromethyl)phenoxy]-1,2,4-triazin-3-amine], for which the “pKi A2a” value in assay [3] was found to be 5.96.
Consider `Cc1cc(-c2nnc(N)nc2-c2ccc(F)cc2)cc(C(F)(F)F)n1` [1(cxciii)], for which, in assay [1], the “pKi A1” value is given as 6.93. The “reversal of cataleptic behavior” value in assay [2] (120 min pre-test time) is reported as “statistically significant”.
Take `Nc1nnc(-c2ccc(F)c(Cl)c2)c(-c2ccccc2)n1` [1(xv), 6-(3-Chloro-4-fluorophenyl)-5-phenyl-1,2,4-triazin-3-amine]: in assay [1], the “pKi A1” value worked out at 8.45. For the same compound, the “pKi A2a” value in assay [3] is recorded as 7.11.
Turning to `O=C(CCCN1CCC(O)(c2ccc(Cl)cc2)CC1)c1ccc(F)cc1` [Haloperidol, haloperidol, reference compound], the “catalepsy average score (maximum score of 4)” value in assay [2] (haloperidol 0.82 mg/kg i.p., 150 min pre-test time) is given as 3.1.
`Cc1cc(-c2nnc(N)nc2-c2ccccc2)cc(C)[n+]1[O-]` [1(ccxiii)]: the “pKi A1” value in assay [1] is recorded as 7.12. Moreover, the “pKi A2a” value in assay [3] worked out at 7.51.
Regarding `Nc1nnc(-c2ccc3occc3c2)c(-c2ccccc2)n1` [1(xxxv), 6-(1-benzofuran-5-yl)-5-phenyl-1,2,4-triazin-3-amine], in assay [1], the “pKi A1” value is 8.20. In addition, in assay [3], the “pKi A2a” value was 7.19.
For the compound `Cc1cc(-c2nnc(N)nc2-c2ccc(F)cc2)cc(Cl)n1` [Example 1(xcv), 6-(2-chloro-6-methylpyridin-4-yl)-5-(4-fluorophenyl)-1,2,4-triazin-3-amine], the “reversal of cataleptic behavior” value in assay [2] (120 min pre-test time) was “statistically significant”.
On to `Nc1nnc(Oc2ccccc2)c(-c2ccccc2)n1` [3(i), 6-Phenoxy-5-phenyl-1,2,4-triazin-3-amine], for which the Ki in assay [1] is more than 10000 nM. In addition, in assay [3], the “pKi A2a” value stood at 7.17.
As for `Cc1cc(-c2nnc(N)nc2-c2ccc(F)cc2)cc(N2CCC2)n1` [5(xi), 6-[2-(azetidin-1-yl)-6-methylpyridin-4-yl]-5-(4-fluorophenyl)-1,2,4-triazin-3-amine], the “pKi A1” value in assay [1] is reported as 6.90. Moreover, the “pKi A2a” value in assay [3] turned out to be 7.76.
On to `Nc1nnc(-c2ccc3ccccc3c2)c(-c2ccccc2)n1` [1(lxxii)], for which the “pKi A1” value in assay [1] is reported as 8.52. Further, the “pKi A2a” value in assay [3] is on record as 6.99.
As for `Nc1nnc(-c2cc(Cl)cc(Cl)c2)c(-c2ccccc2)n1` [1(xiii), 6-(3,5-Dichlorophenyl)-5-phenyl-1,2,4-triazin-3-amine], the “reversal of cataleptic behavior” value in assay [2] (120 min pre-test time) is on record as “statistically significant”.
In the case of `Nc1nnc(-c2cc(Cl)nc(C(F)F)c2)c(-c2ccccc2)n1` [1(clxxx)], the “pKi A1” value in assay [1] worked out at 7.76. Besides, the “pKi A2a” value in assay [3] is reported as 8.90.
In the case of `CC1CCCN(c2nnc(N)nc2-c2ccccc2)C1` (stereo not drawn) [2(iii), 6-(3-Methylpiperidin-1-yl)-5-phenyl-1,2,4-triazin-3-amine], in assay [1], the “pKi A1” value worked out at 5.37. Besides, the “pKi A2a” value in assay [3] is given as 7.31.
For the compound `Cc1cc(-c2nnc(N)nc2-c2ccccc2)cc(C)c1O` [1(xli)], in assay [1], the “pKi A1” value was determined as 7.83.
On to `[2H]C([2H])([2H])c1cc(-c2nnc(N)nc2-c2ccccc2)cc(C)n1` [5(viii), 6-(2-Methyl-6-d3-methylpyridin-4-yl)-5-phenyl-1,2,4-triazin-3-amine], for which the “pKi A1” value in assay [1] worked out at 7.26.
As to `Nc1nnc(-c2ccnc(C3CC3)c2)c(-c2ccccc2)n1` [1(lxxix)], in assay [1], the “pKi A1” value came out at 9.35. In assay [3], the “pKi A2a” value came out at 7.45.
`Cc1cn(-c2nnc(N)nc2-c2ccccc2)cc(C)c1=O` [5(ix), 1-(3-Amino-5-phenyl-1,2,4-triazin-6-yl)-3,5-dimethylpyridin-4(1H)-one]: in assay [1], the “pKi A1” value is on record as 7.62. In addition, in assay [3], the “pKi A2a” value came out at 7.77.
With `Nc1nnc(-c2cccc(C(F)(F)F)c2)c(-c2ccccc2)n1` [1(ix), 5-Phenyl-6-[3-(trifluoromethyl)phenyl]-1,2,4-triazin-3-amine], the “pKi A1” value in assay [1] is 7.81.
With `CC(=O)Nc1cc(-c2nnc(N)nc2-c2ccccc2)ccc1O` [5(vii), N-[5-(3-Amino-5-phenyl-1,2,4-triazin-6-yl)-2-hydroxyphenyl]acetamide], the “pKi A1” value in assay [1] turned out to be 8.69. Further, the “pKi A2a” value in assay [3] amounted to 6.73.

The record behind these values is US10988455B2, “1,2,4-triazine-4-amine derivatives” (Heptares Therapeutics Limited, priority 2010, dated 2021).
